T1: Deoxyhypusine synthase (BmDHS) (Brugia malayi, UniProt A0A0J9XTC4)
T1 construct: gene bma-dhps-1; full-length, recombinant BmDHS (residues 1–366)
T1 sequence (A0A0J9XTC4 1-366): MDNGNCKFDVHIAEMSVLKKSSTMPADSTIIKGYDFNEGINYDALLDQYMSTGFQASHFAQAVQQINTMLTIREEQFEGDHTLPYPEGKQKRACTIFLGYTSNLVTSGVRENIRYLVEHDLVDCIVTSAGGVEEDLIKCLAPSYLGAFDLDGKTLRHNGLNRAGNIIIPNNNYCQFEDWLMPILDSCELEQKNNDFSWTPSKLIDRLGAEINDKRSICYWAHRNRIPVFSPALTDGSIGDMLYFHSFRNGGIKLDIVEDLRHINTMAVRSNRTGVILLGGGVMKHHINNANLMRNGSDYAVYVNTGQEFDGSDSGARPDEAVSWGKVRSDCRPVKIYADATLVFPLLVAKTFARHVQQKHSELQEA

B1: Brugia malayi deoxyhypusine synthase (BmDHS), full-length recombinant protein (enzyme)
chain: SMDNGNCKFDVHIAEMSVLKKSSTMPADSTIIKGYDFNEGINYDALLDQYMSTGFQASHFAQAVQQINTMLTIREEQFEGDHTLPYPEGKQKRACTIFLGYTSNLVTSGVRENIRYLVEHDLVDCIVTSAGGVEEDLIKCLAPSYLGAFDLDGKTLRHNGLNRAGNIIIPNNNYCQFEDWLMPILDSCELEQKNNDFSWTPSKLIDRLGAEINDKRSICYWAHRNRIPVFSPALTDGSIGDMLYFHSFRNGGIKLDIVEDLRHINTMAVRSNRTGVILLGGGVMKHHINNANLMRNGSDYAVYVNTGQEFDGSDSGARPDEAVSWGKVRSDCRPVKIYADATLVFPLLVAKTFARHVQQKHSELQEA
notes: additional N-terminal serine residue introduced by the cloning strategy and left over after TEV cleavage of the poly-His tag; Deoxyhypusine synthase of Brugia malayi, encoded by bma-DHPS-1, full-length enzyme, residues 1-366; Expressed from pNIC28-Bsa4; Molecular weight by LC-MS 41,083.5 Da; also called B. malayi (Bm)DHS; filarial worm DHS; source: E. coli BL21(DE3)-R3-pRARE2, purified (HisTrap …)

Assays:
[1] = target: T1, Deoxyhypusine synthase (BmDHS); test: NADH fluorescence assay of DHS partial reaction with purified recombinant enzyme; assay type: biochemical
[2] = target: the molecule itself; test: SEC; analytical gel filtration, Superdex 200 Increase 10/300, 900 ug purified BmDHS; 20 mM HEPES pH 7.5, 300 mM NaCl, 5% glycerol, 0.5 mM TCEP; calibrated with protein standards (Kav against log mass)

Row | Molecule | IC50 [1] [nM] | stoichiometry N [2]
1 | N=C(N)NCCCCCCCN [GC7] | 28 | –
2 | B1 | – | 4
